Data reported in patent US20040023884A1, “Biologically active peptides from functional domains of bactericidal/permeability-increasing protein and uses thereof” (priority 1993, published 2004).

Legend:
[1] = In vivo APTT in heparinized rats; parameters: species or system Sprague-Dawley rats; settings: 100 U/kg heparin i.v., test protein 5 minutes later, blood 2 minutes after
Method: The in vivo effect of exemplary BPI combination peptides on APTT in heparinized rats was determined and compared with the in vivo effect of rBPI23. APTT is lengthened by the presence of endogenous or exogenous inhibitors of thrombin formation, such as therapeutically administered heparin. Agents which neutralize the anti-coagulant effects of heparin will reduce the APTT as measured by this test. Sprague-Dawley rats housed under NIH guidelines were administered with 100 U/kg heparin by bolus intravenous injections via the animals' tail vein followed 5 minutes later by administration of varying amounts of test or control protein as compared with rBPI23. The APTT was then determined from blood samples collected from the abdominal aorta 2 minutes after the administration of the test or control protein. The APTT of untreated animals, as well as animals treated only with a BPI peptide, was also determined.

[2] = system: ATIII/heparin complexes; assay: Thrombin inactivation by ATIII/heparin complexes (Chromostrate anti-thrombin assay); assay type: biochemical; settings: 1.0 to 100 μg/mL
Method: BPI functional domain peptides BPI.2, BPI.3, BPI.4, BPI.5, BPI.6, and BPI.8, along with rBPI23 as a positive control, were assayed for their effect on thrombin inactivation by ATIII/heparin complexes according to the method of Example 3 in copending and co-assigned U.S. patent application Ser. No. 08/093,202, filed Jul. 15, 1993, incorporated by reference. Specifically, a Chromostrate™ anti-thrombin assay kit (Organon Teknika Corp., Durham, N.C.) was used to examine the inhibition of purified thrombin by preformed ATIII/heparin complexes in plasma.
Briefly, the assay was performed in 96 well microtiter plates in triplicate with a final volume per well of 200 μL. Varying concentrations of the BPI functional domain peptides ranging from 1.0 μg/mL to 100 μg/mL were assayed to determine their effect on thrombin inhibition in the presence of pre-formed ATIII/heparin complexes. The order of addition of assay components was as follows: 1) a dilution series of rBPI23 or BPI functional domain peptides or thaumatin as a control protein, with final concentrations of 100, 50, 25, 10 and 1 μg/well, diluted in PBS in a final volume of 50 μL; 2) 50 μL plasma diluted 1:100 in a buffer supplied by the manufacturer, 3) 50 μl thrombin at 1 nKat/mL in a buffer supplied by the manufacturer, and 4) 50 μL chromogenic substrate at a concentration of 1 μmol/mL in water. The reaction was allowed to proceed for 10 minutes at 37° C. and stopped with the addition of 50 μL 0.1M citric acid. The colorimetric reaction was quantitated on a microplate reader as described in Example 3.

[3] = 3H-heparin binding assay (affinity and capacity); settings: for Heparin Capacity: heparin bound at saturation; for Kd: read-out: Heparin Affinity
Procedure, shortened: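 Peptide fragments were bound to PVDF-membrane wells and incubated with 3H-heparin in blocking buffer for 1 h at 4 °C. After washing, bound radioactivity was quantified by liquid scintillation counting, with BSA background subtracted; rBPI23 served as positive control.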

[4] = system: E. coli 0113 LPS; assay: Limulus Amoebocyte Lysate (LAL) inhibition assay; assay type: biochemical; settings: alanine variant relative to BPI.2
Procedure, shortened: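 BPI proteolytic fragments incubated with E. coli 0113 LPS (4 ng/mL final) for 3 h at 37 °C, then diluted in D-PBS to 200 pg/mL LPS for chromogenic LAL. Lysate 25 min, substrate 20–30 min at room temperature, acetic acid stop; OD405 expressed as percent LPS inhibition.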

[5] = system: E. coli O86a:K61; assay: Radial diffusion bactericidal assay, E. coli O86a:K61; assay type: cell-based; settings: FIG. 11i
[6] = system: E. coli 0111:B4 (smooth) bacteria; assay: Radial diffusion bactericidal assay, E. coli 0111:B4; assay type: cell-based; settings: radial diffusion; PROBIT analysis; E. coli O111:B4 (smooth)
[7] = system: rough mutant E. coli J5 bacteria; assay: Radial diffusion bactericidal assay, E. coli J5; assay type: cell-based; settings: radial diffusion; PROBIT analysis; E. coli J5 (rough)
Procedure, shortened: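 Log-phase bacteria, washed in 10 mM sodium phosphate pH 7.4, were seeded at 4×10^6 CFU/mL in underlayer agarose. BPI fragments (5 or 10 μL) went into 3 mm wells for 3 h at 37° C., then overlayer agarose was added. After overnight 37° C. incubation, clearing zones were measured by micrometer.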

[8] = system: Staphylococcus aureus; assay: Radial diffusion bactericidal assay, Staphylococcus aureus; assay type: cell-based; settings: radial diffusion; PROBIT analysis; S. aureus
[9] = system: endotoxin (e.g. E. coli 01:B4); assay: Mouse experimental endotoxemia model; parameters: species or system mice; settings: in vivo
Method: BPI functional domain peptides are tested for their efficacy in a mouse experimental endotoxemia model. Groups of at least 15 mice are administered an intravenous injection of endotoxin (e.g. E. coli 01:B4, Sigma Chemical Co., St. Louis, Mo.) at a LD90 dosage (e.g., 40 mg/kg). This is followed by a second intravenous injection of the test peptide in varying concentrations from about 0.1 mg/kg to about 100 mg/kg, preferably in the range of about 1 to 50 mg/kg. Injections of buffer without added peptide are used in negative control mice. The animals are observed for 7 days and mortality recorded. The efficacy of the peptides of this invention is measured by a decrease in endotoxemia-associated mortality in peptide-injected mice as compared with control mice.

Substance | APTT in heparinized rats (in words) [1] | heparin neutralization effect (in words) [2] | cpm ^3H-Heparin bound ([3]; 100 picomoles of each fragment per well, saturating 3H-heparin 20 μg/mL, mean of duplicate wells ± range) | LAL (relative difference) [4] | bactericidal activity (in words) [5] | pmol added to well to achieve a 30 mm^2 bactericidal zone, E. coli O111:B4 [6] | Heparin Capacity [3] [ng] | Kd [3] [nM] | pmol added to well to achieve a 30 mm^2 bactericidal zone, E. coli J5 [7] | pmol added to well to achieve a 30 mm^2 bactericidal zone, S. aureus [8] | activity in the murine endotoxemia model (in words) [9]
thaumatin [reference compound] | no effect on APTT times in heparinized animals | no neutralizing effect | 7,432 ± 83 cpm | – | – | – | – | – | – | – | –
IKISGKWKAAKRFLK [BPI.23] | – | – | – | = (no difference in the LAL assay) | showed bactericidal activity | 14,445.00 pmol | 285.0 | 693 | 1,330.40 pmol | – | –
KWKAQFRFLKKSKVGWLILLFHKK [BPI.102] | – | – | – | – | – | 697,655.78 pmol | 535.2 | 4610 | 13,814.12 pmol | b (no detectable activity up to 5 μg/well) | active in this murine model
